Assay results from US20220009920A1 (GB005, Inc., priority 2020, published 2022).
Read-outs that look alike come from different tables or passages of the source.

Key:
Test in all cases: Large panel kinase profiling
Assay type in all cases: biochemical
LCK = LCK (Homo sapiens, UniProt P06239); details: 1 μM test article, 1 mM ATP
Method in brief: (§1)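 One compound concentration (1 μM) was screened against each kinase at 1 mM ATP using PhosphoSens CSox-Sensor detection, at 30° C., with fluorescence read every 1 min (Ex 360 nm/Em 485 nm).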

RPS6KA2/RSK3 = RPS6KA2/RSK3 (Homo sapiens, UniProt Q15349); details: 1 μM test article, 1 mM ATP
Method in brief: as §1

PTK2B = PTK2B (Homo sapiens, UniProt Q14289)
Method in brief: as §1

MAPK11/P38B = target: T1, MAPK11/P38B (Homo sapiens, UniProt Q15759); details: 1 μM test article, 1 mM ATP
T1 construct: AssayQuant Technologies, Inc. (service provider)
Method in brief: as §1

MAP4K3/GLK = target: T2, MAP4K3/GLK (Homo sapiens, UniProt Q8IVH8); details: 1 μM test article, 1 mM ATP
T2 construct: AssayQuant Technologies, Inc. (service provider)
T2 sequence (Q8IVH8 1-894): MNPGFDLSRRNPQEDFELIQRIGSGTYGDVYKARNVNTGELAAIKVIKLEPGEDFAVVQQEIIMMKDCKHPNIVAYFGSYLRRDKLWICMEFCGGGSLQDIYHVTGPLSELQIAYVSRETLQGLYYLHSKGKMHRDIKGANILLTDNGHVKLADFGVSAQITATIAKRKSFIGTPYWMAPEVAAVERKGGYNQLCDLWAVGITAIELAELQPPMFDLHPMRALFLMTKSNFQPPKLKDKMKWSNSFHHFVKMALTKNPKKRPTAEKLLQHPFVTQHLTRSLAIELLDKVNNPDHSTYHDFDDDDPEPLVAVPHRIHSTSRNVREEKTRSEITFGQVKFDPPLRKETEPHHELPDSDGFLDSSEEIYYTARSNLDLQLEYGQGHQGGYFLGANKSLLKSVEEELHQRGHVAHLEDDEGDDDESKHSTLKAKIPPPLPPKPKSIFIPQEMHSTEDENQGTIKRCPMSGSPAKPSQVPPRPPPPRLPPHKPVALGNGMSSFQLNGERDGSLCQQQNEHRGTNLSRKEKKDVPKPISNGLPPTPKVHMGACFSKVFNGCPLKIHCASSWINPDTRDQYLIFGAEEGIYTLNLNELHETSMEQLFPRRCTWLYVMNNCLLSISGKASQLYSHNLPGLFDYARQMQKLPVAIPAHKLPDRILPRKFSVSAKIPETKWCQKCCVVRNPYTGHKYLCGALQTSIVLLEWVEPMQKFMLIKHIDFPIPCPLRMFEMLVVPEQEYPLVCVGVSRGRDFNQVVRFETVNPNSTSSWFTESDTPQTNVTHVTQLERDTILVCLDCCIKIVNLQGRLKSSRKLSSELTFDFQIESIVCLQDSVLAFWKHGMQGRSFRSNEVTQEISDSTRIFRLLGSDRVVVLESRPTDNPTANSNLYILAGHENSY
Method in brief: as §1

GRK2 = target: T3, GRK2 (Homo sapiens, UniProt P25098); details: 1 μM test article, 1 mM ATP
T3 construct: AssayQuant Technologies, Inc. (service provider)
T3 sequence (P25098 1-689): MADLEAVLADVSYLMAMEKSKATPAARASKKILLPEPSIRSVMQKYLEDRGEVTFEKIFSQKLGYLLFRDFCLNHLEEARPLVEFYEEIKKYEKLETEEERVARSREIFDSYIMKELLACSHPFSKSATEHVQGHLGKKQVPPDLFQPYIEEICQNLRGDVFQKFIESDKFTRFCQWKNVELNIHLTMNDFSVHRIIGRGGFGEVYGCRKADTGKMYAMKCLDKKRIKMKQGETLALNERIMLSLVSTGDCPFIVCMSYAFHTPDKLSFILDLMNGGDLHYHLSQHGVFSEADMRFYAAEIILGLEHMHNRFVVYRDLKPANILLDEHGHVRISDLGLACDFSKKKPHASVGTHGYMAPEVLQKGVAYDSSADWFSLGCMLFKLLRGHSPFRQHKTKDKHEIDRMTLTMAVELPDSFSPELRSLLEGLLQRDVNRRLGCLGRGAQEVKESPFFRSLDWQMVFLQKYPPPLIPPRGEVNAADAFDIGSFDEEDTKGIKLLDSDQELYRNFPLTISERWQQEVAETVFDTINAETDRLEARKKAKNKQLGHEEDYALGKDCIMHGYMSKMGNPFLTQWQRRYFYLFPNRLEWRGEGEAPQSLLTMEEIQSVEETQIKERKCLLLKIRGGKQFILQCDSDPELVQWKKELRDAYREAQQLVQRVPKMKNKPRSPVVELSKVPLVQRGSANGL
Method in brief: as §1

CAMK2G = target: T4, CAMK2G (Homo sapiens, UniProt Q13555); details: 1 μM test article, 1 mM ATP
T4 construct: AssayQuant Technologies, Inc. (ran the panel)
Method in brief: as §1

PRKCA/PKCA = PRKCA/PKCA (Homo sapiens, UniProt P17252); details: 1 μM test article, 1 mM ATP
Method in brief: as §1

MYLK4 = target: T5, MYLK4 (Homo sapiens, UniProt Q86YV6); details: 1 μM test article, 1 mM ATP
T5 construct: AssayQuant Technologies, Inc. (assay service)
T5 sequence (Q86YV6 1-388): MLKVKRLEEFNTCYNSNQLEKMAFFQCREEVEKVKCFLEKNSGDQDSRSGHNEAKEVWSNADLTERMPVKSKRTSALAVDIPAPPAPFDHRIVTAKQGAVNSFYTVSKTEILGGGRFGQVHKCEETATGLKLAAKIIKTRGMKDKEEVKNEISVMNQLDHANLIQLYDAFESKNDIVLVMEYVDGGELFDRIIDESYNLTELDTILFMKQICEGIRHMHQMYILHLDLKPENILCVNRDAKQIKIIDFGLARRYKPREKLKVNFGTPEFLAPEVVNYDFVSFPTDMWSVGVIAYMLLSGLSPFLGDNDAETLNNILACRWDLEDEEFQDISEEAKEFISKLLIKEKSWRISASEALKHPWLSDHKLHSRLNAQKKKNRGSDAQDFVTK
Method in brief: as §1

[1] = PTK2B, 1 μM test article, 1 mM ATP, read-out: % Inhibition

PTK2B, sequence (Q14289 whole entry, species assumed): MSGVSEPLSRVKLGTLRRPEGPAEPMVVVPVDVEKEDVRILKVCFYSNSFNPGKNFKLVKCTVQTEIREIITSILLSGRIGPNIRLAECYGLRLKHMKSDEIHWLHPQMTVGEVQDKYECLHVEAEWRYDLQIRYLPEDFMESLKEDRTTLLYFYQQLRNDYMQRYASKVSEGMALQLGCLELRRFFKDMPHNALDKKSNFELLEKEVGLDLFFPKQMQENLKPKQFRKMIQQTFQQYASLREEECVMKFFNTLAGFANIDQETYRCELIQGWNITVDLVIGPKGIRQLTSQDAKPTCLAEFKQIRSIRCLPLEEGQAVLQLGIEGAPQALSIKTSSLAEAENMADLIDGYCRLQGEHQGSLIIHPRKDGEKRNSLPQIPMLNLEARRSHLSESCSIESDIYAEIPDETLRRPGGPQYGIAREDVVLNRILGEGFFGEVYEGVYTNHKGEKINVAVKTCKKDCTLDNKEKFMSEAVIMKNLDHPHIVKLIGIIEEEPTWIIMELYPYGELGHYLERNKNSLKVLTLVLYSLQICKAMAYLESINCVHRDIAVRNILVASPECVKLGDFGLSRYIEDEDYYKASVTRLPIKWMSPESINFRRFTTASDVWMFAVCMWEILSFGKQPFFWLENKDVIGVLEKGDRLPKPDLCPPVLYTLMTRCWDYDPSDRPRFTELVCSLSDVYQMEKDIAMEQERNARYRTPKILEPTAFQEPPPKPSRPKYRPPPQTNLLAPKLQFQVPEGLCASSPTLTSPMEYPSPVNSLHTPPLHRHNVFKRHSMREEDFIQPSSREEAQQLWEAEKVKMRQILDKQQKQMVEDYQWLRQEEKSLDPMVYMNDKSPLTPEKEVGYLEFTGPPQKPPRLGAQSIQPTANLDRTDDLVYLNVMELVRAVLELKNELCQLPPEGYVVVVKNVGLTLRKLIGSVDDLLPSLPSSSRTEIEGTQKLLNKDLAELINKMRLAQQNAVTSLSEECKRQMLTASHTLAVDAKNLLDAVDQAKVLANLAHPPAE
T4 sequence (Q13555 whole entry, species assumed): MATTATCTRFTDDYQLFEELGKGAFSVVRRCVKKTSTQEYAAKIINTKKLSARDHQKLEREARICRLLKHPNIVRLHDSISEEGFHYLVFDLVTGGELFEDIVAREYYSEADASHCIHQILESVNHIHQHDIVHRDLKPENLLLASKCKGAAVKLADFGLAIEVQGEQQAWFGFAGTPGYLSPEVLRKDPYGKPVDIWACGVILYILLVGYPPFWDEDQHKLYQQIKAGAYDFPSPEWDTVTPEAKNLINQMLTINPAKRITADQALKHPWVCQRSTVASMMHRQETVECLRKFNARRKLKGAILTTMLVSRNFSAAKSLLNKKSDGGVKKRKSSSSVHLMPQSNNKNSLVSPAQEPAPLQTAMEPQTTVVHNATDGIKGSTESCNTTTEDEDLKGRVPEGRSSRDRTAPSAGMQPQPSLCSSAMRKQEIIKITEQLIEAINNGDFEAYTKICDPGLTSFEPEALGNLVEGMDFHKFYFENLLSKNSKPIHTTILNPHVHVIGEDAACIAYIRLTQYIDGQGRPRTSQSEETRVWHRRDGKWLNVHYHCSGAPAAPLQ
RPS6KA2/RSK3, sequence (Q15349 whole entry): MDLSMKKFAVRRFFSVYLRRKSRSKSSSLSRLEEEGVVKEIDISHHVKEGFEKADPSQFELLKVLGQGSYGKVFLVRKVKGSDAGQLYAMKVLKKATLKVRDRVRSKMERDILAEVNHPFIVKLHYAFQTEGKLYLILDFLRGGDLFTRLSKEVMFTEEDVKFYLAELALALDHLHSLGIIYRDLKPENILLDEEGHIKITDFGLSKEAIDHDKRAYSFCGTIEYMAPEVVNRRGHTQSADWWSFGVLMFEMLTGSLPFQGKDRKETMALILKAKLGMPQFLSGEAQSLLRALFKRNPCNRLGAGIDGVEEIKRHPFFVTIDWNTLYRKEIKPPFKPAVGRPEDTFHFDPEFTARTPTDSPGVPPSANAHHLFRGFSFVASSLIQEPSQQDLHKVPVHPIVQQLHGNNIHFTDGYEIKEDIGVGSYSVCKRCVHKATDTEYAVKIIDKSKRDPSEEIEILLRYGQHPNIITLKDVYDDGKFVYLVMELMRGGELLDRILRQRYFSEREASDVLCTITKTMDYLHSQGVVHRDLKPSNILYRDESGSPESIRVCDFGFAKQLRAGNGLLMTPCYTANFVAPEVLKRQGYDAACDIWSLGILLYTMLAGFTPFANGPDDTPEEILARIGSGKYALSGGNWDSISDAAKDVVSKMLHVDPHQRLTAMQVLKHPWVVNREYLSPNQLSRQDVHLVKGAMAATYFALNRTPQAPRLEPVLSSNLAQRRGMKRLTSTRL
T1 sequence (Q15759 whole entry): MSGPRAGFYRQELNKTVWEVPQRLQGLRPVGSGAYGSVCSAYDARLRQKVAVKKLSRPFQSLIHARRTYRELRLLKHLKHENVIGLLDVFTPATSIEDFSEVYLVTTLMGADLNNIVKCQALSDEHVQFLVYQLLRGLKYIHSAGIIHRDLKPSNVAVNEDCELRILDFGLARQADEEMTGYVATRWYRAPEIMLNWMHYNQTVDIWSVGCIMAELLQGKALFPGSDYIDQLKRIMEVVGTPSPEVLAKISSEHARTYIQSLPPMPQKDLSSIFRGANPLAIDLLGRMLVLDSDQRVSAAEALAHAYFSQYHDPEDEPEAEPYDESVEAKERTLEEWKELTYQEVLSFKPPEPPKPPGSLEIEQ
LCK, sequence (P06239 whole entry, species assumed): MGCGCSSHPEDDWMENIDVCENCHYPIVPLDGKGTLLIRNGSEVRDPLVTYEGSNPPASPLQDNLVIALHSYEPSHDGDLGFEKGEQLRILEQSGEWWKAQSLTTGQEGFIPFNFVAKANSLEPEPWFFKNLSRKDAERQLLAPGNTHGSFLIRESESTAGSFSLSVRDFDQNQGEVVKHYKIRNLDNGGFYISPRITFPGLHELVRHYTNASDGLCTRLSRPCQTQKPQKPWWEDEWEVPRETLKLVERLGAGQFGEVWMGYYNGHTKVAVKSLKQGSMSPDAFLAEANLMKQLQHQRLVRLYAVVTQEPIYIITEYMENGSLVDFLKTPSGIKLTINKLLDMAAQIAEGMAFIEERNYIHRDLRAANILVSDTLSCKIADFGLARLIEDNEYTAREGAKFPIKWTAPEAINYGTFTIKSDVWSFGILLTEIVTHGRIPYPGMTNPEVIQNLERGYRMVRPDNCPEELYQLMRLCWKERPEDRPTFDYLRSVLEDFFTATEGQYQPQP

SMILES	inhibition at 1 µM (LCK)	inhibition at 1 µM (RPS6KA2/RSK3)	inhibition at 1 µM (PTK2B; [1])	inhibition at 1 µM (MAPK11/P38B)	inhibition at 1 µM (MAP4K3/GLK)	inhibition at 1 µM (GRK2)	inhibition at 1 µM (CAMK2G)	inhibition at 1 µM (PRKCA/PKCA)	inhibition at 1 µM (MYLK4)	inhibition at 1 µM (PTK2B)
C=CC(=O)N1CCCC(c2c(F)cc(C(N)=O)c3[nH]c4c(c23)CCCCC4)C1 (single isomer, unassigned) [Compound 5-6]	0.2%	1.7%	-16.1%	-3.3%	-7.3%	-14.8%	15.7%	2.3%	29.7%	
C=CC(=O)N1CCC[C@@H](c2c(F)cc(C(N)=O)c3[nH]c4c(c23)CC2(CC4)CC2)C1 [Compound 6-2, (S)-5-(1-acryloylpiperidin-3-yl)-6-fluoro-1,2,4,9-tetrahydrospiro[carbazole-3,1′-cyclopropane]-8-carboxamide]	15.9%	-47.9%		32.9%	6.2%	-10.5%	-7.1%	14.7%	-30.5%	-15.4%
C=CC(=O)N1CCC[C@@H](c2c(F)cc(C(N)=O)c3[nH]c4c(c23)CCC4)C1 [Compound 10-2, (S)-8-(1-acryloylpiperidin-3-yl)-7-fluoro-1,2,3,4-tetrahydrocyclo-penta[b]indole-5-carboxamide]	18.3%	-38%	-8.8%	5.7%	5%	-1.6%	-37.5%	-3.5%	-21.1%	
